{
  "source": "patent EP4180043A1",
  "about": "“RUTHENIUM COMPLEXES” (Universidad de Almeria, priority 2020, dated 2022)",
  "test_system": "cancer cells",
  "experiment": "antiproliferative activity (anticancer properties)",
  "assay_type": "cell-based",
  "conditions": "cell line not stated; cisplatin in the same experiment; read-out: antiproliferative activity indicated by the cell survival half-life factor (IC50)",
  "protocol": "Three examples of bi-heterometallic compounds which would be obtained from that compound present better activity as shown by their IC50: IC50 Ru-Zn: 9.07±0.27; IC50 Ru-Co: 5.40±0.19; IC50 Ru-Ni: 7.15±0.30 µM. Ru-Zn = [Ru(η^6-C10H14)(Cl2)-µ-dmoPTA-1κP:2κ^2N,N'-ZnCl2]. Ru-Co = [Ru(η^6-C10H14)(Cl2)-µ-dmoPTA-1κP:2κ^2N,N'-CoCl2]. Ru-Ni = [Ru(η^6-C10H14)(Cl2)-µ-dmoPTA-1κP:2κ^2N,N'-NiCl2].",
  "data": [
    {"compound": "N.N.[Cl][Pt][Cl]", "note": "[cisplatin, reference compound]", "values": [
      {"measurement": "IC50", "value": "45.6 ± 8.08", "unit": "µM"}
    ]},
    {"compound": "[Ru(η^6-C10H14)(Cl2)(HdmoPTA)](OSO2CF3)", "values": [
      {"measurement": "IC50", "value": "32.09 ± 0.3", "unit": "µM"}
    ]},
    {"compound": "[Ru(η^6-C10H14)(Cl2)-µ-dmoPTA-1κP:2κ^2N,N'-CoCl2] [Ru-Co]", "values": [
      {"measurement": "IC50", "value": "5.4 ± 0.19", "unit": "µM"}
    ]},
    {"compound": "[Ru(η^6-C10H14)(Cl2)-µ-dmoPTA-1κP:2κ^2N,N'-NiCl2] [Ru-Ni]", "values": [
      {"measurement": "IC50", "value": "7.15 ± 0.3", "unit": "µM"}
    ]},
    {"compound": "[Ru(η^6-C10H14)(Cl2)-µ-dmoPTA-1κP:2κ^2N,N'-ZnCl2] [Ru-Zn]", "values": [
      {"measurement": "IC50", "value": "9.07 ± 0.27", "unit": "µM"}
    ]}
  ]
}
